Laboratory results taken from patent publication US20100184770A1, “COMPOUNDS” (Glaxo Group Limited, priority 2006, published 2010).

Target: T1, histamine H3 receptor (Homo sapiens, UniProt Q9Y5N1)
T1 construct: expressed in transfected cells; host or cells: CHO K1 cells with pSwitch/pGene (GeneSwitch), clone 3H3, mifepristone-induced; membranes
Assay: Histamine H3 functional antagonist assay ([35S]-GTPγS, membranes)
Format: biochemical
Details: histamine at EC80, read-out: average pKi (pKb) at H3 (converted)
Experimental: The histamine H3 cDNA is isolated from its holding vector, pcDNA3.1 TOPO (InVitrogen), by restriction digestion of plasmid DNA with the enzymes BamH1 and Not-1 and is ligated into the inducible expression vector pGene (InVitrogen) digested with the same enzymes. The GeneSwitch™ system (a system where in transgene expression is switched off in the absence of an inducer and switched on in the presence of an inducer) is performed as described in U.S. Pat. Nos. 5,364,791; 5,874,534; and 5,935,934. Ligated DNA is transformed into competent DH5α E. coli host bacterial cells and is plated onto Luria Broth (LB) agar containing Zeocin™ (an antibiotic which allows the selection of cells expressing the sh ble gene which is present on pGene and pSwitch) at 50 μgml^−1. Colonies containing the re-ligated plasmid are identified by restriction analysis. […]
10-14 days post selection, 10 nM Mifepristone (InVitrogen) is added to the culture medium to induce the expression of the receptor. […] Receptor bound antibody is detected by incubation of the cells for 60 min on ice with a goat anti rabbit antibody, conjugated with Alexa 488 fluorescence marker (Molecular Probes). Following two further washes with Sorting Medium, cells are filtered through a […] Filcon™ (BD Biosciences) and then are analysed on a FACS Vantage SE Flow Cytometer fitted with an Automatic Cell Deposition Unit. […]

T1 sequence (Q9Y5N1 whole entry, species assumed): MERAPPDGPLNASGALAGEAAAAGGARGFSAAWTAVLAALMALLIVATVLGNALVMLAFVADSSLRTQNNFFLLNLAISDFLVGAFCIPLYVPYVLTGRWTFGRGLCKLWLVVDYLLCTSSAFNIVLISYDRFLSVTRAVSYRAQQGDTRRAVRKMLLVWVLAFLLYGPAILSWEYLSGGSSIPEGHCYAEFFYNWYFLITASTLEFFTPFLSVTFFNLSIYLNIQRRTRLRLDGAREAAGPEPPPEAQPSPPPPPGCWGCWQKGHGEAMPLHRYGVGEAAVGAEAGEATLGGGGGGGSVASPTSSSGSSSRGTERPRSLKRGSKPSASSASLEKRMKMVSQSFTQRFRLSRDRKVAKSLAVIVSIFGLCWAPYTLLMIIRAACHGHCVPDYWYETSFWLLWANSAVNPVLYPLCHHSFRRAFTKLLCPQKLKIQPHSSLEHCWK

`COCCC(=O)NCCN1CCC[C@@H]1Cn1nc(Cc2ccc(Cl)cc2)c2ccccc2c1=O.O=CO` [Example 35, N-[2-((2R)-2-{[4-[(4-Chlorophenyl)methyl]-1-oxo-2(1H)-phthalazinyl]methyl}-1-pyrrolidinyl)ethyl]-3-(methyloxy)propanamide, formate salt] was tested, and the Ki was > 316 nM.

For `Cl.O=C(CC(F)(F)F)NCCN1CCC[C@@H]1Cn1nc(Cc2ccc(Cl)cc2)c2ccccc2c1=O` [Example 36a, N-[2-((2R)-2-{[4-[(4-Chlorophenyl)methyl]-1-oxo-2(1H)-phthalazinyl]methyl}-1-pyrrolidinyl)ethyl]-3,3,3-trifluoropropanamide, hydrochloride], the Ki was > 316 nM.
